Values joined by “and” are separate entries in the source; they are usually repeats but may differ in a detail not shown here. Equal values may be shown once.
System: influenza virus
Assay: Clinical test (Test Example 15): time to alleviation of influenza symptoms
Conditions: for Time until headache symptom is alleviated, median value / Time until muscular or joint pain symptom is alleviated, median value / Time until nasal congestion symptom is alleviated, median value / Time until sore throat symptom is alleviated, median value / Time until cough symptom is alleviated, median value / Time until fatigue symptom is alleviated, median value / Time until feverishness or chills symptom is alleviated, median value: patients with symptom moderate or severe at baseline; for Time to alleviation of influenza symptoms, difference from placebo / Time to alleviation of influenza symptoms, hazard ratio (Cox proportional hazard model relative to placebo) / Time to alleviation of influenza symptoms, median value: ITTI; for Time to alleviation of influenza symptoms, median value: influenza patients 20 to <65 years old

Compound: COC(=O)OCOc1c2n(ccc1=O)N([C@@H]1c3ccccc3SCc3c1ccc(F)c3F)[C@@H]1COCCN1C2=O [II-6]
- Time until headache symptom is alleviated, median value (single oral 10 mg): 42.2 h
- Time until muscular or joint pain symptom is alleviated, median value (single oral 10 mg): 31.2 h
- Time until nasal congestion symptom is alleviated, median value (single oral 10 mg): 25.2 h
- Time until sore throat symptom is alleviated, median value (single oral 10 mg): 35.3 h
- Time until cough symptom is alleviated, difference from placebo (single oral 20 mg): -1.4 h
- Time until cough symptom is alleviated, hazard ratio (Cox model relative to placebo) (single oral 20 mg): 0.883
- Time until fatigue symptom is alleviated, difference from placebo (single oral 20 mg): -11.5 h
- Time until fatigue symptom is alleviated, hazard ratio (Cox model relative to placebo) (single oral 20 mg): 0.876
- Time until feverishness or chills symptom is alleviated, difference from placebo (single oral 20 mg): 0.6 h
- Time until feverishness or chills symptom is alleviated, hazard ratio (Cox model relative to placebo) (single oral 20 mg): 0.848
- Time until headache symptom is alleviated, difference from placebo (single oral 20 mg): -6.7 h
- Time until headache symptom is alleviated, hazard ratio (Cox model relative to placebo) (single oral 20 mg): 0.936
- Time until muscular or joint pain symptom is alleviated, difference from placebo (single oral 20 mg): -12 h
- Time until muscular or joint pain symptom is alleviated, hazard ratio (Cox model relative to placebo) (single oral 20 mg): 0.687
- Time until nasal congestion symptom is alleviated, difference from placebo (single oral 20 mg): -21.3 h
- Time until nasal congestion symptom is alleviated, hazard ratio (Cox model relative to placebo) (single oral 20 mg): 0.59
- Time until sore throat symptom is alleviated, difference from placebo (single oral 20 mg): 1.5 h
- Time until sore throat symptom is alleviated, hazard ratio (Cox model relative to placebo) (single oral 20 mg): 1.05
- Time to alleviation of influenza symptoms, difference from placebo (single oral 20 mg): -26.6 h
- Time to alleviation of influenza symptoms, hazard ratio (Cox proportional hazard model relative to placebo) (single oral 20 mg): 0.81
- Time to alleviation of influenza symptoms, median value (single oral 20 mg): 51.0 h and 51 h
- Time until cough symptom is alleviated, median value (single oral 20 mg): 29.8 h
- Time until fatigue symptom is alleviated, median value (single oral 20 mg): 31.3 h
- Time until feverishness or chills symptom is alleviated, median value (single oral 20 mg): 29.4 h
- Time until headache symptom is alleviated, median value (single oral 20 mg): 37 h
- Time until muscular or joint pain symptom is alleviated, median value (single oral 20 mg): 29.9 h
- Time until nasal congestion symptom is alleviated, median value (single oral 20 mg): 21.6 h
- Time until sore throat symptom is alleviated, median value (single oral 20 mg): 27.8 h
- Time until cough symptom is alleviated, difference from placebo (single oral 40 mg): -6.6 h
- Time until cough symptom is alleviated, hazard ratio (Cox model relative to placebo) (single oral 40 mg): 0.865
- Time until fatigue symptom is alleviated, difference from placebo (single oral 40 mg): -11.7 h
- Time until fatigue symptom is alleviated, hazard ratio (Cox model relative to placebo) (single oral 40 mg): 0.724
- Time until feverishness or chills symptom is alleviated, difference from placebo (single oral 40 mg): -5.8 h
- Time until feverishness or chills symptom is alleviated, hazard ratio (Cox model relative to placebo) (single oral 40 mg): 0.71
- Time until headache symptom is alleviated, difference from placebo (single oral 40 mg): -5.8 h
- Time until headache symptom is alleviated, hazard ratio (Cox model relative to placebo) (single oral 40 mg): 0.655
- Time until muscular or joint pain symptom is alleviated, hazard ratio (Cox model relative to placebo) (single oral 40 mg): 0.657
- Time until nasal congestion symptom is alleviated, hazard ratio (Cox model relative to placebo) (single oral 40 mg): 0.564
- Time until sore throat symptom is alleviated, difference from placebo (single oral 40 mg): 5.6 h
- Time until sore throat symptom is alleviated, hazard ratio (Cox model relative to placebo) (single oral 40 mg): 1.092
- Time to alleviation of influenza symptoms, difference from placebo (single oral 40 mg): -28.2 h
- Time to alleviation of influenza symptoms, hazard ratio (Cox proportional hazard model relative to placebo) (single oral 40 mg): 0.817
- Time to alleviation of influenza symptoms, median value (single oral 40 mg): 49.5 h
- Time until cough symptom is alleviated, median value (single oral 40 mg): 24.6 h
- Time until fatigue symptom is alleviated, median value (single oral 40 mg): 31.1 h
- Time until feverishness or chills symptom is alleviated, median value (single oral 40 mg): 23 h
- Time until headache symptom is alleviated, median value (single oral 40 mg): 37.9 h
- Time until muscular or joint pain symptom is alleviated, median value (single oral 40 mg): 25.4 h
- Time until nasal congestion symptom is alleviated, median value (single oral 40 mg): 21.9 h
- Time until sore throat symptom is alleviated, median value (single oral 40 mg): 31.9 h

Reference: patent publication US10759814B2, “Pharmaceutical compositions containing substituted polycyclic pyridone derivatives and prodrug thereof” (priority 2016, dated 2020)
